Legend:
barnyardgrass [1] = experiment: Test A pre-/postemergence herbicide test; type: in vivo, Echinochloa crus-galli
How it was run: (§1)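 Planted in loam–sand blend; treated the same day preemergence by directed soil spray, while separately grown plants at one- to two-leaf stage got postemergence spray. Compared visually with untreated controls after approximately 10 days; 100 means complete control.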

crabgrass, large = experiment: Test A pre-/postemergence herbicide test; type: in vivo, Digitaria sanguinalis
How it was run: as §1

giant foxtail = experiment: Test A pre-/postemergence herbicide test; type: in vivo, Setaria faberii
How it was run: as §1

morningglory = experiment: Test A pre-/postemergence herbicide test; type: in vivo, Ipomoea spp.
How it was run: as §1

pigweed = experiment: Test A pre-/postemergence herbicide test; type: in vivo, Amaranthus retroflexus
How it was run: as §1

velvetleaf = experiment: Test A pre-/postemergence herbicide test; type: in vivo, Abutilon theophrasti
How it was run: as §1

wheat = experiment: Test A pre-/postemergence herbicide test; type: in vivo, Triticum aestivum
How it was run: as §1

corn = experiment: Test A pre-/postemergence herbicide test; type: in vivo, Zea mays
How it was run: as §1

rice [2] = experiment: Test B flooded paddy test; type: in vivo, Oryza sativa; conditions: 250 g ai/ha, Flood; scale of 0 to 100 where 0 is no effect and 100 is complete control
How it was run: (§2)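 Visual ratings from 0, meaning no effect, up to 100, meaning complete control, were made by comparison with untreated controls 13 to 15 days after treatment. Test compounds went straight into floodwater standing 3 cm over the soil of pots holding 2-leaf seedlings.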

sedge, umbrella [3] = experiment: Test B flooded paddy test; type: in vivo, Cyperus difformis; conditions: 250 g ai/ha, Flood; scale of 0 to 100 where 0 is no effect and 100 is complete control
How it was run: as §2

ducksalad [4] = experiment: Test B flooded paddy test; type: in vivo, Heteranthera limosa; conditions: 250 g ai/ha, Flood; scale of 0 to 100 where 0 is no effect and 100 is complete control
How it was run: as §2

barnyardgrass [5] = experiment: Test B flooded paddy test; type: in vivo, Echinochloa crus-galli; conditions: 250 g ai/ha, Flood; scale of 0 to 100 where 0 is no effect and 100 is complete control
How it was run: as §2

rice [6] = experiment: Test C flooded paddy test; type: in vivo, Oryza sativa; conditions: Flood
How it was run: (§3)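 Plants at the 2-leaf stage in pots flooded to 3 cm were treated by applying compound directly to the paddy water, with depth held throughout. After 13 to 15 days in a greenhouse, response was rated visually against controls on a 0 (no effect) to 100 (complete control) scale.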

sedge, umbrella [7] = experiment: Test C flooded paddy test; type: in vivo, Cyperus difformis; conditions: Flood
How it was run: as §3

ducksalad [8] = experiment: Test C flooded paddy test; type: in vivo, Heteranthera limosa; conditions: Flood
How it was run: as §3

barnyardgrass [9] = experiment: Test C flooded paddy test; type: in vivo, Echinochloa crus-galli; conditions: Flood
How it was run: as §3

[10] = Postemergence, 125 g ai/ha, 0 to 100 scale, 0 no effect, 100 complete control
[11] = Postemergence, 500 g ai/ha, 0 to 100 scale (0 no effect, 100 complete control)
[12] = Preemergence, 125 g ai/ha, visual rating on 0 to 100 scale (0 no effect, 100 complete control)
[13] = preemergence, 500 g ai/ha, 0 to 100 scale
[14] = 125 g ai/ha, scale of 0 to 100 where 0 is no effect and 100 is complete control, 13 to 15 days

## O=C1NCC(c2ccc(Cl)cc2)C1C(=O)Nc1ccccc1F (racemic) [Compound 87]
Barnyardgrass [1]; [10]
  Plant response rating, Barnyardgrass: 50
Barnyardgrass [1]; [11]
  Plant response rating, Barnyardgrass: 80
Barnyardgrass [1]; [12]
  Barnyardgrass plant response rating: 20
Barnyardgrass [1]; preemergence, 500 g ai/ha, 0 to 100 scale (0 no effect, 100 complete control)
  Plant response rating, Barnyardgrass: 80
crabgrass, large; [10]
  Plant response rating, Crabgrass, Large: 60
crabgrass, large; [11]
  Plant response rating, Crabgrass, Large: 80
crabgrass, large; [12]
  Crabgrass, Large plant response rating: 80
crabgrass, large; [13]
  Plant response rating, Crabgrass, Large: 90
Giant foxtail; [10]
  Plant response rating, Foxtail, Giant: 50
Giant foxtail; [11]
  Plant response rating, Foxtail, Giant: 80
Giant foxtail; [12]
  Foxtail, Giant plant response rating: 60
Giant foxtail; [13]
  Plant response rating, Foxtail, Giant: 90
morningglory; [10]
  Plant response rating, Morningglory: 0
morningglory; [11]
  Plant response rating, Morningglory: 10
morningglory; [12]
  Morningglory plant response rating: 0
morningglory; [13]
  Plant response rating, Morningglory: 0
pigweed; [10]
  Plant response rating, Pigweed: 0
pigweed; [11]
  Plant response rating, Pigweed: 20
pigweed; [12]
  Pigweed plant response rating: 0
pigweed; [13]
  Plant response rating, Pigweed: 0
velvetleaf; [10]
  Plant response rating, Velvetleaf: 0
velvetleaf; [11]
  Plant response rating, Velvetleaf: 0
velvetleaf; [12]
  Velvetleaf plant response rating: 0
velvetleaf; [13]
  Plant response rating, Velvetleaf: 0
wheat; [10]
  Plant response rating, Wheat: 0
wheat; [11]
  Plant response rating, Wheat: 20
wheat; [12]
  Wheat plant response rating: 0
wheat; [13]
  Plant response rating, Wheat: 10
corn; [10]
  Plant response rating, Corn: 0
corn; [11]
  Plant response rating, Corn: 0
corn; [12]
  Corn plant response rating: 0
corn; [13]
  Plant response rating, Corn: 0
Rice [2]
  Plant response rating, Rice: 0
sedge, umbrella [3]
  Plant response rating, Sedge, Umbrella: 0
Ducksalad [4]
  Plant response rating, Ducksalad: 80
Barnyardgrass [5]
  Plant response rating, Barnyardgrass: 60
Rice [6]; [14]
  Plant response rating, Rice: 0
Rice [6]; 250 g ai/ha, scale 0 to 100
  Plant response rating, Rice: 0
Rice [6]; 500 g ai/ha, scale 0 to 100
  Plant response rating, Rice: 0
Rice [6]; 1000 g ai/ha, scale 0 to 100
  Plant response rating, Rice: 30
sedge, umbrella [7]; [14]
  Plant response rating, Sedge, Umbrella: 0
sedge, umbrella [7]; 250 g ai/ha, scale 0 to 100
  Plant response rating, Sedge, Umbrella: 0
sedge, umbrella [7]; 500 g ai/ha, scale 0 to 100
  Plant response rating, Sedge, Umbrella: 0
sedge, umbrella [7]; 1000 g ai/ha, scale 0 to 100
  Plant response rating, Sedge, Umbrella: 0
Ducksalad [8]; [14]
  Plant response rating, Ducksalad: 75
Ducksalad [8]; 250 g ai/ha, scale 0 to 100
  Plant response rating, Ducksalad: 95
Ducksalad [8]; 500 g ai/ha, scale 0 to 100
  Plant response rating, Ducksalad: 100
Ducksalad [8]; 1000 g ai/ha, scale 0 to 100
  Plant response rating, Ducksalad: 100
Barnyardgrass [9]; [14]
  Plant response rating, Barnyardgrass: 0
Barnyardgrass [9]; 250 g ai/ha, scale 0 to 100
  Plant response rating, Barnyardgrass: 0
Barnyardgrass [9]; 500 g ai/ha, scale 0 to 100
  Plant response rating, Barnyardgrass: 25
Barnyardgrass [9]; 1000 g ai/ha, scale 0 to 100
  Plant response rating, Barnyardgrass: 40

— patent US10294202B2, “Pyrrolidinones as herbicides” (FMC Corporation, priority 2013, dated 2019)
